Data taken from PubChem BioAssay AID330 (DTP/NCI, 2004).
Where “and” joins values, the source holds several entries; their conditions need not be identical. Identical values can stand only once. Inconclusive results and toxic doses are left out. How the source made its calls: active means survival T/C of 150% or more; inactive means T/C below 125% in these data.

Tested on: P388 leukemia ip, CD2F1 mice, survival T/C
Assay: NCI In Vivo Anticancer Drug Screen. Data for tumor model P388 Leukemia (intraperitoneal) in CD2F1 (CDF1) mice
Conditions: endpoint: median survival time, higher = longer survival
Method in brief: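 Mice carrying the transplanted tumor received test compound or vehicle. Survival was recorded in each group, and the value is the treated-group measurement divided by that of the vehicle-treated control group.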

[1] = dose: 60.0 mg/kg/injection, schedule: Q01DX005 (ip), vehicle: saline with Tween-80
[2] = dose: 120.0 mg/kg/injection, schedule: Q01DX005 (ip), vehicle: saline with Tween-80
[3] = dose: 240.0 mg/kg/injection, schedule: Q01DX005 (ip), vehicle: saline with Tween-80
[4] = dose: 50.0 mg/kg/injection, schedule: Q01DX005 (ip), vehicle: saline with Tween-80
[5] = dose: 100.0 mg/kg/injection, schedule: Q01DX005 (ip), vehicle: saline with Tween-80
[6] = dose: 200.0 mg/kg/injection, schedule: Q01DX005 (ip), vehicle: saline with Tween-80
[7] = dose: 50.0 mg/kg/injection, schedule: Q01DX005 (ip), vehicle: Klucel (hydroxypropylcellulose) (HPC)
[8] = dose: 100.0 mg/kg/injection, schedule: Q01DX005 (ip), vehicle: Klucel (hydroxypropylcellulose) (HPC)
[9] = dose: 200.0 mg/kg/injection, schedule: Q01DX005 (ip), vehicle: Klucel (hydroxypropylcellulose) (HPC)
[10] = dose: 30.0 mg/kg/injection, schedule: Q01DX005 (ip), vehicle: saline with Tween-80
[11] = dose: 50.0 mg/kg/injection, schedule: Q01DX009 (ip), vehicle: saline

Measured: T/C

CCOc1ccc(C(CC)c2cc3c(cc2OCC)OCO3)cc1 (configuration not stated)
inactive: [1] 100 % of control | [2] 111 % of control | [3] 110 % of control

CCCCCCN(CCCCCC)CC(O)c1ccc(Cl)c2ccccc12 (configuration not stated)
inactive: [4] 115 % of control | [5] 101 % of control | [6] 92 % of control

O=C1CSC(c2cccc(Br)c2)N1c1nncs1 (configuration not stated)
inactive: [1] 101 % of control | [2] 97 % of control | [3] 93 % of control

CSC1=NN(C(C)=O)C(c2ccc3ccccc3n2)S1 (configuration not stated)
inactive: [7] 95 % of control | [8] 89 % of control | [9] 99 % of control

COc1ccc(CC2c3cc(OC)c(OC)c(OC)c3CC[N+]2(C)C)cc1Oc1ccc(CC2c3cc4c(c(OC)c3CCN2C)OCO4)cc1 (configuration not stated)
inactive: dose: 3.13 mg/kg/injection, schedule: Q04DX002 (ip), vehicle: saline 99 % of control | dose: 6.25 mg/kg/injection, schedule: Q04DX002 (ip), vehicle: saline 103 % of control

CC[C@@]1(O)C[C@H](OC2CCC(OC3CC(OC(C)=O)C(OC(C)=O)C(C)O3)C(C)O2)c2c(O)c3c(c(O)c2[C@H]1C(=O)OC)C(=O)c1cccc(O)c1C3=O (some centres not stated)
inactive: dose: 3.13 mg/kg/injection, schedule: Q04DX003 (ip), vehicle: distilled water + Tween-80 100 % of control | dose: 6.25 mg/kg/injection, schedule: Q04DX003 (ip), vehicle: distilled water + Tween-80 100 % of control | dose: 12.5 mg/kg/injection, schedule: Q04DX003 (ip), vehicle: distilled water + Tween-80 101 % of control | dose: 25.0 mg/kg/injection, schedule: Q04DX003 (ip), vehicle: distilled water + Tween-80 105 % of control | dose: 50.0 mg/kg/injection, schedule: Q04DX003 (ip), vehicle: distilled water + Tween-80 103 % of control

Nc1nc(SCc2ccccc2Cl)c2[nH]cnc2n1
inactive: dose: 100.0 mg/kg/injection, schedule: Q04DX003 (ip), vehicle: saline with Tween-80 100 % of control

COC(=O)C(=C(C)C)S(=O)c1ccccc1 (configuration not stated)
inactive: dose: 12.5 mg/kg/injection, schedule: Q01DX005 (ip), vehicle: saline 102 % of control | dose: 25.0 mg/kg/injection, schedule: Q01DX005 (ip), vehicle: saline 103 % of control | dose: 50.0 mg/kg/injection, schedule: Q01DX005 (ip), vehicle: saline 100 % of control and 104 % of control

Cc1ncn(-c2ccccc2)c(=O)c1N=Cc1ccccc1
inactive: [1] 86 % of control | [2] 87 % of control

CN1C(Cl)=NS(=O)(=O)c2ccccc21
inactive: [10] 120 % of control | [1] 112 % of control and 95 % of control

COc1cccc2c1C(=O)c1c(O)c3c(c(O)c1C2=O)C[C@@](O)(/C(C)=N/NC(N)=S)C[C@@H]3OC1CC(N)C(O)C(C)O1 (some centres not stated)
active: dose: 200.0 mg/kg/injection, schedule: Q04DX003 (ip), vehicle: water 155 % of control
inactive: dose: 3.13 mg/kg/injection, schedule: Q04DX003 (ip), vehicle: water 108 % of control | dose: 6.25 mg/kg/injection, schedule: Q04DX003 (ip), vehicle: water 109 % of control | dose: 12.5 mg/kg/injection, schedule: Q04DX003 (ip), vehicle: water 112 % of control and 117 % of control | dose: 25.0 mg/kg/injection, schedule: Q04DX003 (ip), vehicle: water 117 % of control and 123 % of control | dose: 50.0 mg/kg/injection, schedule: Q04DX003 (ip), vehicle: water 117 % of control and 122 % of control

CN(C)CCCNc1c2ccccc2nc2cccc([N+](=O)[O-])c12
inactive: dose: 0.03 mg/kg/injection, schedule: Q01DX009 (ip), vehicle: water 102 % of control and 108 % of control | dose: 0.06 mg/kg/injection, schedule: Q01DX009 (ip), vehicle: water 107 % of control and 115 % of control (2×) | dose: 0.13 mg/kg/injection, schedule: Q01DX009 (ip), vehicle: water 115 % of control and 120 % of control and 123 % of control | dose: 0.25 mg/kg/injection, schedule: Q01DX009 (ip), vehicle: water 107 % of control and 96 % of control | dose: 8.0 micrograms/kg/injection, schedule: Q01DX009 (ip), vehicle: saline 100 % of control | dose: 16.0 micrograms/kg/injection, schedule: Q01DX009 (ip), vehicle: saline 119 % of control | dose: 32.0 micrograms/kg/injection, schedule: Q01DX009 (ip), vehicle: saline 100 % of control | dose: 63.0 micrograms/kg/injection, schedule: Q01DX009 (ip), vehicle: saline 123 % of control | dose: 125.0 micrograms/kg/injection, schedule: Q01DX009 (ip), vehicle: saline 117 % of control | dose: 250.0 micrograms/kg/injection, schedule: Q01DX009 (ip), vehicle: saline 116 % of control

CCOC(O)C(F)(F)F (configuration not stated)
inactive: dose: 12.5 mg/kg/injection, schedule: Q01DX009 (ip), vehicle: saline 105 % of control | dose: 25.0 mg/kg/injection, schedule: Q01DX009 (ip), vehicle: saline 105 % of control | [11] 100 % of control | dose: 100.0 mg/kg/injection, schedule: Q04DX003 (ip), vehicle: saline 100 % of control | dose: 200.0 mg/kg/injection, schedule: Q04DX003 (ip), vehicle: saline 109 % of control

CC1(C=O)CCCC2(C)[C@@H]1CCC13CC(CO)C(CC[C@H]12)C3 (some centres not stated)
inactive: dose: 1.63 mg/kg/injection, schedule: Q01DX005 (ip), vehicle: Klucel (hydroxypropylcellulose) (HPC) 86 % of control | dose: 3.25 mg/kg/injection, schedule: Q01DX005 (ip), vehicle: Klucel (hydroxypropylcellulose) (HPC) 88 % of control

O=C(O)CN(CC(=O)O)Cc1cc(=O)[nH]c(=O)[nH]1
inactive: [11] 91 % of control | dose: 100.0 mg/kg/injection, schedule: Q01DX009 (ip), vehicle: saline 95 % of control | dose: 200.0 mg/kg/injection, schedule: Q01DX009 (ip), vehicle: saline 97 % of control

CN1C(=O)[C@@H]2OCCOCCO[C@H]3C(=O)N(C)C(=O)[C@@H]3OCCOCCO[C@H]2C1=O
inactive: dose: 25.0 mg/kg/injection, schedule: Q01DX005 (ip), vehicle: Klucel (hydroxypropylcellulose) (HPC) 112 % of control | [7] 106 % of control | [8] 87 % of control | [9] 96 % of control

CC(=O)Nc1nc(C)c(CCCNS(=O)(=O)c2ccc([N+](=O)[O-])cc2)c(=O)[nH]1
inactive: dose: 15.0 mg/kg/injection, schedule: Q01DX005 (ip), vehicle: saline with Tween-80 100 % of control | [10] 101 % of control | [1] 93 % of control and 95 % of control

CC1(N)C(=O)NC(=O)c2cnccc21 (configuration not stated)
inactive: dose: 100.0 mg/kg/injection, schedule: Q01DX001 (ip), vehicle: saline 104 % of control | dose: 200.0 mg/kg/injection, schedule: Q01DX001 (ip), vehicle: saline 107 % of control | dose: 400.0 mg/kg/injection, schedule: Q01DX001 (ip), vehicle: saline 97 % of control

O=c1ccn2c(n1)SC(c1ccccc1)C2 (configuration not stated)
inactive: dose: 50.0 mg/kg/injection, schedule: Q01DX009 (ip), vehicle: saline with Tween-80 100 % of control | dose: 100.0 mg/kg/injection, schedule: Q01DX009 (ip), vehicle: saline with Tween-80 98 % of control | dose: 200.0 mg/kg/injection, schedule: Q01DX009 (ip), vehicle: saline with Tween-80 100 % of control

CC1CCC2(OC2(C)C)C(=O)C1 (configuration not stated)
inactive: dose: 100.0 mg/kg/injection, schedule: Q04DX002 (ip), vehicle: saline 103 % of control | dose: 200.0 mg/kg/injection, schedule: Q04DX002 (ip), vehicle: saline 103 % of control | dose: 400.0 mg/kg/injection, schedule: Q04DX002 (ip), vehicle: saline 104 % of control

CC1C2c3ccccc3C(c3ccccc32)C1C(=O)O (configuration not stated)
inactive: [4] 98 % of control | [5] 100 % of control | [6] 107 % of control

N=C(N)c1ccc(/C=C/c2cc3cc(C(=N)N)ccc3o2)cc1
active: dose: 100.0 mg/kg/injection, schedule: Q04DX003 (ip), vehicle: suspension in saline 178 % of control
inactive: dose: 12.5 mg/kg/injection, schedule: Q04DX003 (ip), vehicle: suspension in saline 112 % of control | dose: 25.0 mg/kg/injection, schedule: Q04DX003 (ip), vehicle: suspension in saline 118 % of control | dose: 50.0 mg/kg/injection, schedule: Q04DX003 (ip), vehicle: suspension in saline 120 % of control

Oc1ccc(C(O)CNCCCCCCNCC(O)c2ccc(O)c(O)c2)cc1O (configuration not stated)
inactive: dose: 33.0 mg/kg/injection, schedule: Q01DX009 (ip), vehicle: saline 99 % of control and 88 % of control | [11] 121 % of control and 87 % of control and 96 % of control | dose: 75.0 mg/kg/injection, schedule: Q01DX009 (ip), vehicle: saline 96 % of control

CCC[CH2][Sn]([CH2]CCC)([CH2]CCC)[CH2]CC[N+](C)(C)C
inactive: dose: 0.78 mg/kg/injection, schedule: Q01DX009 (ip), vehicle: saline 105 % of control | dose: 1.56 mg/kg/injection, schedule: Q01DX009 (ip), vehicle: saline 105 % of control | dose: 3.12 mg/kg/injection, schedule: Q01DX009 (ip), vehicle: saline 101 % of control
